Columns and labels:
Format in all cases: cell-based, Thiobacillus
[1] = tested on: Thiobacilli; test: Acidification of water on sulfur block treated with salt powder and covered with sand (Example 9); details: about 150 g of salt in powder form on surface, 2 cm sand
Experimental: Two blocks of elemental sulfur with an upper surface of approximately 2500 cm^2 (8.5 Kg of sulfur) are positioned in two containers. The upper surface of each block of sulfur is wetted with 250 ml of a bacterial suspension of Thiobacilli containing over 10^8 bacteria per milliliter. The surface of one block is then treated with sodium chloride by spreading about 150 g of salt in powder form uniformly distributed. The two blocks are subsequently covered with a 2 cm layer of sand and wetted at regular intervals of time with rainwater until the layer of sand is saturated and the rilling of excess water is produced with respect to the saturation. Rainwater is added every month in a quantity equivalent to a fall of 100 mm.
The containers are exposed to the outside environment for three months. At the end of this period, the pH of the water in contact with the sulfur in the two containers, is measured.

[2] = tested on: Thiobacilli (consortium); test: Acidification of TM medium with sulfur powder inoculated with a culture of Thiobacilli (Example 3); details: 33 g/l NaCl
Experimental: 25 ml of TM medium (regulated to pH 6 with HCl 0.1 N and sterilized in an autoclave with vapour for 20 minutes at 121° C.) were introduced into 100 ml flasks. 0.1 g (0.4%) of elemental sulfur (sulfur powder 98%-UNI sieved:0.05) were added to the TM culture medium. 2 g of small sulfur fragments taken from a sulfur deposit in Canada exposed for years to the outside environment and consequently definitely contaminated by sulfo-oxidizing bacteria, were added to the medium as a source of micro-organisms. The cultures were incubated under bland orbital stirring (100 rpm) for 25 days. During the incubation, the cultures were controlled daily for the indirect quantitative evaluation of the cellular development by registering the optical density value (at 600 nm) and to measure the lowering of the pH value.
At the end of this period, the culture broths obtained, with a cellular density higher than 10^7 cells/ml and a lowering of the pH of the medium to a value of 1.5, were filtered on common filter paper to eliminate the particles of excess sulfur and to be preserved, in 2 ml aliquots, in polypropylene phials, in a refrigerator at −70° C., as standardized inoculum.
The two consortia: that produced starting from collection strains and the one prepared starting from sulfur samples removed from actual deposits, were compared with respect to the growth curves and acidification capacity. […] It was then decided to use, for the whole following experiment, the trigger culture consisting of the wild type strains selected from the natural environment. This culture is hereafter called “consortium”.
25 ml of TM—in demineralized water—at pH 6, inoculated with 0.4% (vol/vol) of the bacterial suspension (consortium), with the addition of 0.1 g of sulfur powder, were introduced into 100 ml flasks. 33 g/l of NaCl were added to the medium to evaluate the inhibiting effect of the salt on the growth of the Thiobacilli and the acidification of the solution. Control cultures without NaCl were incubated parallelly.
The culture broths were controlled for pH and absorbance variations.

[3] = tested on: Thiobacilli; test: Acidification of rainwater in contact with solid sulfur test samples colonized by Thiobacilli (Example 5); details: 33 g/l NaCl
Experimental: The following experimental systems were prepared, using test samples of solid sulfur (discoid tables each of about 13 g). • System A: Containing 2 test samples not colonized by microbial cells, placed on the bottom of the container, completely immersed in rainwater (sterilized at a low temperature by micro-filtration); • System A1: Containing two non-colonized test samples, only dampened—by means of a sprayer—with rainwater sterilized by micro-filtration. • System B: Containing 2 colonized test samples (previously immersed in a suspension of 10^8 cells/ml of Thiobacilli and left to dry in the air), placed on the bottom of the container, entirely immersed in micro-filtered rainwater; • System B1: Containing two colonized test samples as per the previous system, only dampened with rainwater sterilized by micro-filtration; • System C: Containing 2 colonized test samples entirely immersed in micro-filtered rainwater, in which 33 g/l of Nacl are dissolved; • System C1: containing 2 colonized test samples only dampened with rainwater sterilized by micro-filtration and containing 33 g/l of NaCl.
The pH variation measurements during 48 days of experimentation are represented in Table 4.

**Q.** For `[Cl-].[Na+]` [NaCl, Sodium Chloride], which pH ([1]; day 0) is on record?
**A.** 6.0

**Q.** What about the pH ([1]; day 10) of the same compound?
**A.** 5.8

**Q.** What about the pH ([1]; day 20) of the same compound?
**A.** 5.7

**Q.** And the pH ([1]; day 30)?
**A.** 5.7

**Q.** And the pH ([1]; day 40)?
**A.** 5.7

**Q.** What about the pH ([1]; day 90) of the same compound?
**A.** 5.7

**Q.** What about the Optical density ([2]; day 0) of the same compound?
**A.** 0.021

**Q.** And the pH ([2]; day 0)?
**A.** 6.0

**Q.** What about the Optical density ([2]; day 1) of the same compound?
**A.** 0.025

**Q.** What about the pH ([2]; day 1) of the same compound?
**A.** 6.0

**Q.** What about the Optical density ([2]; day 3) of the same compound?
**A.** 0.024

**Q.** What about the pH ([2]; day 3) of the same compound?
**A.** 6.0

**Q.** And the Optical density ([2]; day 5)?
**A.** 0.028

**Q.** And the pH ([2]; day 5)?
**A.** 5.8

**Q.** What about the Optical density ([2]; day 9) of the same compound?
**A.** 0.021

**Q.** What about the pH ([2]; day 9) of the same compound?
**A.** 5.8

**Q.** And the Optical density ([2]; day 12)?
**A.** 0.021

**Q.** And the pH ([2]; day 12)?
**A.** 5.8

**Q.** What about the Optical density ([2]; day 14) of the same compound?
**A.** 0.021

**Q.** And the pH ([2]; day 14)?
**A.** 5.8

**Q.** And the Optical density ([2]; day 16)?
**A.** 0.014

**Q.** What about the pH ([2]; day 16) of the same compound?
**A.** 5.8

**Q.** And the Optical density ([2]; day 19)?
**A.** 0.012

**Q.** And the pH ([2]; day 19)?
**A.** 5.8

**Q.** And the Optical density ([2]; day 21)?
**A.** 0.010

**Q.** And the pH ([2]; day 21)?
**A.** 5.8

**Q.** What about the Optical density ([2]; day 24) of the same compound?
**A.** 0.010

**Q.** And the pH ([2]; day 24)?
**A.** 5.8

**Q.** What about the Optical density ([2]; day 26) of the same compound?
**A.** 0.014

**Q.** What about the pH ([2]; day 26) of the same compound?
**A.** 5.8

**Q.** And the “pH values in the systems” value ([3]; System C1: colonized samples only dampened with rainwater, day 0)?
**A.** 6.0

**Q.** And the “pH values in the systems” value ([3]; System C1: colonized samples only dampened with rainwater, day 3)?
**A.** 5.8

**Q.** What about the “pH values in the systems” value ([3]; System C1: colonized samples only dampened with rainwater, day 5) of the same compound?
**A.** 5.8

**Q.** What about the “pH values in the systems” value ([3]; System C1: colonized samples only dampened with rainwater, day 7) of the same compound?
**A.** 5.8

**Q.** What about the “pH values in the systems” value ([3]; System C1: colonized samples only dampened with rainwater, day 10) of the same compound?
**A.** 5.8

**Q.** What about the “pH values in the systems” value ([3]; System C1: colonized samples only dampened with rainwater, day 12) of the same compound?
**A.** 5.8

**Q.** And the “pH values in the systems” value ([3]; System C1: colonized samples only dampened with rainwater, day 15)?
**A.** 5.8

**Q.** And the “pH values in the systems” value ([3]; System C1: colonized samples only dampened with rainwater, day 21)?
**A.** 5.8

**Q.** What about the “pH values in the systems” value ([3]; System C1: colonized samples only dampened with rainwater, day 29) of the same compound?
**A.** 5.8

**Q.** What about the “pH values in the systems” value ([3]; System C1: colonized samples only dampened with rainwater, day 32) of the same compound?
**A.** 5.8

**Q.** And the “pH values in the systems” value ([3]; System C1: colonized samples only dampened with rainwater, day 35)?
**A.** 5.8

**Q.** What about the “pH values in the systems” value ([3]; System C1: colonized samples only dampened with rainwater, day 38) of the same compound?
**A.** 5.8

**Q.** What about the “pH values in the systems” value ([3]; System C1: colonized samples only dampened with rainwater, day 42) of the same compound?
**A.** 5.8

**Q.** And the “pH values in the systems” value ([3]; System C1: colonized samples only dampened with rainwater, day 46)?
**A.** 5.8

**Q.** And the “pH values in the systems” value ([3]; System C1: colonized samples only dampened with rainwater, day 48)?
**A.** 5.8

**Q.** What about the “pH values in the systems” value ([3]; System C: colonized samples immersed in rainwater, day 0) of the same compound?
**A.** 6.0

**Q.** What about the “pH values in the systems” value ([3]; System C: colonized samples immersed in rainwater, day 3) of the same compound?
**A.** 6.0

**Q.** And the “pH values in the systems” value ([3]; System C: colonized samples immersed in rainwater, day 5)?
**A.** 6.0

**Q.** What about the “pH values in the systems” value ([3]; System C: colonized samples immersed in rainwater, day 7) of the same compound?
**A.** 5.8

**Q.** What about the “pH values in the systems” value ([3]; System C: colonized samples immersed in rainwater, day 10) of the same compound?
**A.** 5.8

**Q.** And the “pH values in the systems” value ([3]; System C: colonized samples immersed in rainwater, day 12)?
**A.** 5.8

**Q.** And the “pH values in the systems” value ([3]; System C: colonized samples immersed in rainwater, day 15)?
**A.** 5.8

**Q.** And the “pH values in the systems” value ([3]; System C: colonized samples immersed in rainwater, day 21)?
**A.** 5.8

**Q.** What about the “pH values in the systems” value ([3]; System C: colonized samples immersed in rainwater, day 29) of the same compound?
**A.** 5.8

**Q.** And the “pH values in the systems” value ([3]; System C: colonized samples immersed in rainwater, day 32)?
**A.** 5.8

**Q.** And the “pH values in the systems” value ([3]; System C: colonized samples immersed in rainwater, day 35)?
**A.** 5.8

**Q.** What about the “pH values in the systems” value ([3]; System C: colonized samples immersed in rainwater, day 38) of the same compound?
**A.** 5.8

**Q.** What about the “pH values in the systems” value ([3]; System C: colonized samples immersed in rainwater, day 42) of the same compound?
**A.** 5.8

**Q.** And the “pH values in the systems” value ([3]; System C: colonized samples immersed in rainwater, day 46)?
**A.** 5.8

**Q.** And the “pH values in the systems” value ([3]; System C: colonized samples immersed in rainwater, day 48)?
**A.** 5.8

From patent publication US7585460B2, “Method for inhibiting the biological acidification of water in contact with materials containing sulfur” (ENI S.p.A., priority 2003, dated 2009)
